Reference: US10947252B2, “Inhibitors of KEAP1-Nrf2 protein-protein interaction” (Janssen Pharmaceutica NV, priority 2018, dated 2021)

tested on: Glo-Response ARE-luc2P HEK293 cell line; test: ARE luciferase reporter cell-based assay; conditions: Homo sapiens, HEK293, 24 h, average of results obtained;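 further: luciferase signal tracks Nrf2 activation of the ARE once compounds disrupt KEAP1-Nrf2 binding, read with One-Glo reagent, DMSO serving as low control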

| SMILES | EC50 |
| --- | --- |
| CCn1nnc2c(C)c([C@H](CC(=O)O)c3ccc(C)c(CN4C[C@H]5CCCN5c5ccccc5S4(=O)=O)c3)ccc21 (single isomer, unassigned) [Example 154, (*R)-3-(3-(((R)-5,5-Dioxido-7a,8,9,10-tetrahydrobenzo[f]pyrrolo[2,1-d][1,2,5]thiadiazepin-6(7H)-yl)methyl)-4-methylphenyl)-3-(1-ethyl-4-methyl-1H-benzo[d][1,2,3]triazol-5-yl)propanoic Acid] | 0.059 µM |
| CCn1nnc2c(C)c([C@@H](CC(=O)O)c3ccc(C)c(CN4CC(C)(C)Oc5ccccc5S4(=O)=O)c3)ccc21 (single isomer, unassigned) [Example 158, (*S)-3-(3-((4,4-Dimethyl-1,1-dioxido-3,4-dihydro-2H-benzo[b][1,4,5]oxathiazepin-2-yl)methyl)-4-methylphenyl)-3-(1-ethyl-4-methyl-1H-benzo[d][1,2,3]triazol-5-yl)propanoic Acid] | 0.0062 µM |
| CCn1nnc2c(C)c([C@H](CC(=O)O)c3ccc(C)c(CN4CC(C)(C)Oc5ccccc5S4(=O)=O)c3)ccc21 (single isomer, unassigned) [Example 159, (*R)-3-(3-((4,4-Dimethyl-1,1-dioxido-3,4-dihydro-2H-benzo[b][1,4,5]oxathiazepin-2-yl)methyl)-4-methylphenyl)-3-(1-ethyl-4-methyl-1H-benzo[d][1,2,3]triazol-5-yl)propanoic Acid] | 0.034 µM |
| Cc1ccc([C@H](CC(=O)O)c2ccc3c(nnn3C3CC3)c2C)cc1CN1CC2(CC2)N(C)c2ncccc2S1(=O)=O (single isomer, unassigned) [Example 225, (*S)-3-(1-Cyclopropyl-4-methyl-1H-benzo[d][1,2,3]triazol-5-yl)-3-(4-methyl-3-((5′-methyl-1′,1′-dioxido-5′H-spiro[cyclopropane-1,4′-pyrido[2,3-f][1,2,5]thiadiazepin]-2′(3′H)-yl)methyl)phenyl)propanoic Acid] | 0.005 µM |
| Cc1ccc([C@@H](CC(=O)O)c2ccn3c(C(F)(F)F)nnc3c2C)cc1CN1C[C@H]2COCCN2c2ncccc2S1(=O)=O (single isomer, unassigned) [Example 263, (*R)-3-(3-(((*S)-5,5-Dioxido-7a,8,10,11-tetrahydro-[1,4]oxazino[3,4-d]pyrido[2,3-f][1,2,5]thiadiazepin-6(7H)-yl)methyl)-4-methylphenyl)-3-(8-methyl-3-(trifluoromethyl)-[1,2,4]triazolo[4,3-a]pyridin-7-yl)propanoic Acid] | 1.16 µM |
| Cc1ccc([C@@H](c2ccn3c(C(F)(F)F)nnc3c2C)C(C)(C)C(=O)O)cc1CN1CC2(CCNCC2)Oc2ncccc2S1(=O)=O (single isomer, unassigned) [Example 336, (*S)-3-(3-((1′,1′-Dioxidospiro[piperidine-4,4′-pyrido[2,3-b][1,4,5]oxathiazepin]-2′(3′H)-yl)methyl)-4-methylphenyl)-2,2-dimethyl-3-(8-methyl-3-(trifluoromethyl)-[1,2,4]triazolo[4,3-a]pyridin-7-yl)propanoic Acid] | 1.83 µM |
| Cc1ccc([C@H](c2ccn3c(C(F)(F)F)nnc3c2C)C(C)(C)C(=O)O)cc1CN1CC2(CCOCC2)Oc2nc(CCC(=O)NCCOCCN)ccc2S1(=O)=O (single isomer, unassigned) [Example 344, (*R)-3-(3-((7′-(3-((2-(2-Aminoethoxy)ethyl)amino)-3-oxopropyl)-1′,1′-dioxido-2,3,5,6-tetrahydrospiro[pyran-4,4′-pyrido[2,3-b][1,4,5]oxathiazepin]-2′(3′H)-yl)methyl)-4-methylphenyl)-2,2-dimethyl-3-(8-methyl-3-(trifluoromethyl)-[1,2,4]triazolo[4,3-a]pyridin-7-yl)propanoic Acid] | 4.93 µM |
| Cc1cc2cc([C@@H](c3ccc(C)c(CN4CC5(CCOCC5)Oc5nc(OCCN6CCCC6)c(C)cc5S4(=O)=O)c3)C(C)(C)C(=O)O)n(C)c2nn1 (single isomer, unassigned) [Example 346, (*S)-3-(3,7-Dimethyl-7H-pyrrolo[2,3-c]pyridazin-6-yl)-2,2-dimethyl-3-(4-methyl-3-((8′-methyl-1′,1′-dioxido-7′-(2-(pyrrolidin-1-yl)ethoxy)-2,3,5,6-tetrahydrospiro[pyran-4,4′-pyrido[2,3-b][1,4,5]oxathiazepin]-2′(3′H)-yl)methyl)phenyl)propanoic Acid] | 0.0498 µM |
| Cc1cc2cc([C@H](c3ccc(C)c(CN4CC5(CCOCC5)Oc5nc(OCCN6CCCC6)c(C)cc5S4(=O)=O)c3)C(C)(C)C(=O)O)n(C)c2nn1 (single isomer, unassigned) [Example 347, (*R)-3-(3,7-Dimethyl-7H-pyrrolo[2,3-c]pyridazine-6-yl)-2,2-dimethyl-3-(4-methyl-3-((8′-methyl-1′,1′-dioxido-7′-(2-(pyrrolidine-1-yl)-ethoxy)2,3,5,6-tetrahydrospiro[pyran-4,4′-pyrido[2,3-b][1,4,5]oxathiazepin]-2′,(3′H)-yl)methyl)phenyl)propanoic Acid] | 3.58 µM |
| Cc1cc2cc([C@@H](c3ccc(C)c(CN4CC5(CCOCC5)Oc5nc(OCCN6CCCCC6)c(C)cc5S4(=O)=O)c3)C(C)(C)C(=O)O)n(C)c2nn1 (single isomer, unassigned) [Example 348, (*S)-3-(3,7-Dimethyl-7H-pyrrolo[2,3-c]pyridazine-6-yl)-2,2-dimethyl-3-(4-methyl-3-((8′-methyl-1′,1′-dioxido-7′-(2-(piperidine-1-yl)-ethoxy)2,3,5,6-tetrahydrospiro[pyran-4,4′-pyrido[2,3-b][1,4,5]oxathiazepin]-2′,(3′H)-yl)methyl)phenyl)propanoic Acid] | 0.0192 µM |
| Cc1cc2cc([C@H](c3ccc(C)c(CN4CC5(CCOCC5)Oc5nc(OCCN6CCCCC6)c(C)cc5S4(=O)=O)c3)C(C)(C)C(=O)O)n(C)c2nn1 (single isomer, unassigned) [Example 349, (*R)-3-(3,7-Dimethyl-7H-pyrrolo[2,3-c]pyridazine-6-yl)-2,2-dimethyl-3-(4-methyl-3-((8′-methyl-1′,1′-dioxido-7′-(2-(piperidine-1-yl)-ethoxy)2,3,5,6-tetrahydrospiro[pyran-4,4′-pyrido[2,3-b][1,4,5]oxathiazepin]-2′,(3′H)-yl)methyl)phenyl)propanoic Acid] | 1.54 µM |
| Cc1cc2cc([C@@H](c3ccc(C)c(CN4CC5(CC5)Oc5nc(OCCN6CCCCC6)c(C)cc5S4(=O)=O)c3)C(C)(C)C(=O)O)n(C)c2nn1 (single isomer, unassigned) [Example 350, (*S)-3-(3,7-Dimethyl-7H-pyrrolo[2,3-c]pyridazine-6-yl)-2,2-dimethyl-3-(4-methyl-3-((8′-methyl-1′,1′-dioxido-7′-(2-(piperidine-1-yl)-ethoxy)spiro[cyclopropane-1,4′-pyrido[2,3-b][1,4,5]oxathiazepin]-2′,(3′H)-yl)methyl)phenyl)propanoic Acid] | 0.0234 µM |
| Cc1cc2cc([C@H](c3ccc(C)c(CN4CC5(CC5)Oc5nc(OCCN6CCCCC6)c(C)cc5S4(=O)=O)c3)C(C)(C)C(=O)O)n(C)c2nn1 (single isomer, unassigned) [Example 351, (*R)-3-(3,7-Dimethyl-7H-pyrrolo[2,3-c]pyridazine-6-yl)-2,2-dimethyl-3-(4-methyl-3-((8′-methyl-1′,1′-dioxido-7′-(2-(piperidine-1-yl)-ethoxy)spiro[cyclopropane-1,4′-pyrido[2,3-b][1,4,5]oxathiazepin]-2′,(3′H)-yl)methyl)phenyl)propanoic Acid] | 0.836 µM |
